{
  "source": "paper PMC10762068",
  "about": "“Selective blockade of Cav1.2 (α1C) versus Cav1.3 (α1D) L-type calcium channels by the black mamba toxin calciseptine” (Nature Communications, 2024)",
  "key": {"[1]": {"system": "isolated perfused hearts from mice", "experiment": "Whole heart contractility and heart rate, Langendorff perfused mouse heart", "details": "native Cas 100 nM, n=5", "procedure": "Hearts were isolated from adult male mice anaesthetized with a first intraperitoneal injection of a mixture comprising ketamine (100 mg/kg) and xylazine (10 mg/kg), and a second one of sodium pentobarbital (45 mg/kg; Ceva Santé Animale, France). An intraperitoneal injection of heparin (7500IU/kg; Sanofi Aventis, France) was administered in order to avoid thrombus formation. A thoracotomy was performed and beating hearts were quickly removed and excised into ice-cold modified Krebs-Henseleit buffer containing (mM): NaCl 116; KCl 5; MgSO4 1.1; NaH2P0_4 0.35; NaHCO3 27; CaC1_2 1.8 and glucose 10. Buffer was gassed with 95% O2 and 5% CO2, giving a pH of 7.4 at 37 °C. Before use, the buffer was initially passed through a 0.2 µm filter (Sarstedt, USA). The aorta was cannulated under magnification and hearts were quickly mounted and perfused on the Langendorff perfusion system (Isolated heart system, EMKA Technologies, France). The coronary circulation was perfused at a constant pressure (70 mmHg) over a 1 to 4 ml/min flow range with modified Krebs-Henseleit buffer. During the stabilization phase, the heart was continuously perfused with modified Krebs-Henseleit and the electrocardiogram (ECG) was recorded through Ag/AgCl electrodes positioned on the right atrium and near the apex. Heart temperature was of 37 °C as continuously assessed by a probe positioned on the base of the heart and recorded by using a TH-5 monitoring thermometer (Phymep, USA). LV pressure was continuously measured by a home-made balloon inserted into the LV cavity by the left atrium and connected to the EMKA amplifier. After 20 min of stabilization (baseline), 100 nM Cas was perfused into the heart for 7 min. Then, the modified Krebs-Henseleit buffer was perfused for 1 h allowing to wash the effects of the Cas toxin. During the whole ex vivo protocol, the left ventricular pressure signals were continuously digitized at […] and recorded using an IOX data acquisition system (EMKA Technologies, France). Data were analyzed using ecgAUTOv3.3.3.12 (EMKA technologies) and MATLAB-R2021b (The MathWorks) custom-made script\nIn all experiments of cellular electrophysiology, we employed synthetized analog of Cas, commercially available at Latoxan (ID: L8109). The native peptide was purified from the venom of Dendroaspis polylepis purchased from Latoxan, as previoulsly described. The pure peptide was obtained after gel filtration, cation exchange and C18 reversed phase chromatography. Its measured molecular mass (7036.26 Da average) was in accordance with the mass calculated from sequence data (7036.22 Da)."}, "[2]": {"system": "DHP binding site, brain synaptosomes", "details": "at a rather high concentration; cited from earlier work", "text": "DHPs are prototypical organic blockers of L-type calcium channels widely used in therapeutical applications."}},
  "note": "Positions of bridges follow the written chain, without caps; N, C: chain ends. No end group written: not given here.",
  "data": [
    {"sequence": "RICYIHKASLPRATKTCVENTCYKMFIRTQREYISERGCGCPTAMWPYQTECCKGDRCNK (disulfide 3-22, 17-39, 41-52, 53-58 (inferred)) [Cas, calciseptine]", "values": [
      {"measurement": "episodes of arrhythmia", "setting": "[1]", "value": "did not observe episodes of arrhythmia"},
      {"measurement": "left ventricular (LV) contraction amplitude", "setting": "[1]; perfused 7 min, 37 °C, before 51 ± 3 mmHg, mean ± SEM", "value": "9 ± 2", "unit": "mmHg"},
      {"measurement": "contraction velocity (dP/dt max)", "setting": "[1]; before 1.7 ± 0.2, mean ± SEM", "value": "0.4 ± 0.1", "unit": "mmHg/ms"},
      {"measurement": "baseline diastolic pressure", "setting": "[1]; before 8 ± 2 mmHg, mean ± SEM", "value": "8 ± 3", "unit": "mmHg"},
      {"measurement": "relaxation time constant (Ƭ)", "setting": "[1]; before 10 ± 1 ms, not affected, mean ± SEM", "value": "13 ± 2", "unit": "ms"},
      {"measurement": "time-to-peak interval (time to maximal pressure)", "setting": "[1]; before 54 ± 1 ms, not affected, mean ± SEM", "value": "50 ± 3", "unit": "ms"},
      {"measurement": "averaged inter-beat (RR) interval", "setting": "[1]; before 273 ± 17 ms, p > 0.05, mean ± SEM", "value": "271 ± 17", "unit": "ms"},
      {"measurement": "relaxation velocity (dP/dt min)", "setting": "[1]; before −1.2 ± 0.1, mean ± SEM", "value": "−0.1 ± 0.1", "unit": "mmHg/ms"},
      {"measurement": "inhibition of DHP binding", "setting": "[2]", "value": "could inhibit binding of DHPs"}
    ]}
  ]
}
